# Measurements taken from patent publication US12029682B2, “Spray ejector mechanisms and devices providing charge isolation and controllable droplet charge, and low dosage volume ophthalmic administration” (EYENOVIA, INC., priority 2012, dated 2024).
# System: glaucomatous beagles
# Set-up: species or system beagle dog
# Conditions: dog, in vivo
# Protocol: All animals are rested a minimum of one week before starting the trials. Intraocular pressure (IOP), pupil diameter (PD), and heart rate (HR) are measured 6 times (at 0, 0:30, 0:45, 1, 2, 7 hrs) daily for five days, for initial baseline levels (Study days 1-5). The basic measurement protocol is followed and performed by the operator. PD is measured via Jameson Caliper (mm horizontally). IOP is measured with a TonoVet instrument with clean probe (iCare). HR is monitored via palpation of the femoral vessels. After two rest days, one eye is randomly assigned to receive the drug delivered via the ejector device and the contralateral eye is given traditional latanoprost from an eye dropper container.
# All animals were rested a minimum of one week before starting the trials. Intraocular pressure (IOP), pupil diameter (PD), and heart rate (HR) were measured daily at time 0, 12, 13, 14, 16, and 19 hours for five days starting at approximately 2100 h to establish initial baseline levels (study days 1-5). […] PD was measured via Jameson Caliper (mm horizontally). IOP was measured using a TonoVet instrument with clean probe (iCare). HR was monitored via palpation of the femoral vessels. […]
# Following a 7 day rest period, the eye choice was reversed. […] A veterinary ophthalmologist evaluated each test subject before and after the study for evidence of ocular side effects. […]
structure (smiles),measurement,value
CC(C)OC(=O)CCC/C=C\C[C@@H]1[C@@H](/C=C/[C@@H](O)COc2cccc(C(F)(F)F)c2)[C@H](O)C[C@@H]1O [travoprost],changes in HR,no changes in HR
